According to article PMC12399242 (Acta Pharmaceutica Sinica. B, 2025):
Where two headings read alike, the source gives them in different places.

Tests used:
[1] = tested on: HIV-1 (IIIB); assay: microbe, parasite or virus in culture; assay type: cell-based; settings: for EC50: Human immunodeficiency virus 1, IIIB, MT4, WT HIV-1, protection of MT-4 cells against HIV-induced cytopathogenicity, mean ± SD, n ≥ 3
From the text: (§1) Inspired by our previous research on heteroaromatic-biphenyl-DAPYs[15], the 4-cyanophenyl group on the biphenyl moiety was replaced with a privileged 4-pyridyl group for further evaluation.

[2] = in vitro; settings: human, CC50
From the text: as §1

[3] = tested on: HIV-1 L100I; assay: Antiviral activity against HIV-1 mutant L100I in MT-4 cells; assay type: cell-based; settings: Human immunodeficiency virus 1, MT4, read-out: EC50 L100I
[4] = tested on: HIV-1 K103N; assay: Antiviral activity against HIV-1 mutant K103N in MT-4 cells; assay type: cell-based; settings: Human immunodeficiency virus 1, MT4, read-out: EC50 K103N
[5] = tested on: HIV-1 Y181C; assay: Antiviral activity against HIV-1 mutant Y181C in MT-4 cells; assay type: cell-based; settings: Human immunodeficiency virus 1, MT4, read-out: EC50 Y181C
[6] = tested on: HIV-1 E138K; assay: Antiviral activity against HIV-1 mutant E138K in MT-4 cells; assay type: cell-based; settings: Human immunodeficiency virus 1, MT4, read-out: EC50 E138K
[7] = tested on: HIV-1 Y188L; assay: Antiviral activity against HIV-1 mutant Y188L in MT-4 cells; assay type: cell-based; settings: Human immunodeficiency virus 1, MT4, read-out: EC50 Y188L
[8] = tested on: HIV-1 F227L + V106A; assay: microbe, parasite or virus in culture; assay type: cell-based; settings: Human immunodeficiency virus 1, MT4, read-out: EC50 F227L + V106A
[9] = tested on: HIV-1 K103N + Y181C (RES056); assay: Antiviral activity against HIV-1 double mutant K103N + Y181C (RES056) in MT-4 cells; assay type: cell-based; settings: Human immunodeficiency virus 1, MT4, read-out: EC50 K103N + Y181C
[10] = tested on: HIV-1 (IIIB); settings: earlier compounds of Fig. 1 / introduction, cited from earlier work
[11] = tested on: MT-4 cells; settings: cited from earlier work
[12] = tested on: HIV-1 Y188L; settings: cited from earlier work
[13] = tested on: HIV-1 F227L + V106A; settings: cited from earlier work
[14] = tested on: HIV-1 K103N + Y181C (RES056); settings: cited from earlier work
[15] = human liver microsomes; cited from earlier work
[16] = comparison values; cited from earlier work
[17] = target: CYP3A4-M (Homo sapiens, UniProt P08684); settings: read-out: IC50 CYP3A4-M; cited from earlier work
Chain of CYP3A4-M (P08684 whole entry): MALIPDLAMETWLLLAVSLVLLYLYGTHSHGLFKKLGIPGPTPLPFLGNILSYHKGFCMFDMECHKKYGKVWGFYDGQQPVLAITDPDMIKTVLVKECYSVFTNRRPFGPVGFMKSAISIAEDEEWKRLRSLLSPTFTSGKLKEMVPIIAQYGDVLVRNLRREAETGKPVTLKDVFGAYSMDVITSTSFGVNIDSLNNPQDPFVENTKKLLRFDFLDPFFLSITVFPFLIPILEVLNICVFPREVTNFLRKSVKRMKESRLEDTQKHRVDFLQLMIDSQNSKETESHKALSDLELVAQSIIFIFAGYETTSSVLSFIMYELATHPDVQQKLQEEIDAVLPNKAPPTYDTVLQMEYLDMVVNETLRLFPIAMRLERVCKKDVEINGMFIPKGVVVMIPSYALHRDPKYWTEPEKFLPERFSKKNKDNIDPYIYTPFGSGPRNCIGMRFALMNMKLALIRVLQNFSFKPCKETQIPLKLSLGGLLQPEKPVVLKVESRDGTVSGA

SMILES | EC50 [1] [µM] | CC50 [2] [µM] | EC50 [3] [µM] | EC50 [4] [µM] | EC50 [5] [µM] | EC50 [6] [µM] | EC50 [8] [µM] | EC50 [9] [µM] | other results
Cc1cnc(Nc2ccc(C#N)cc2)nc1Nc1c(F)cc(-c2ccc(C#N)cc2)cc1F [compound 6, reference compound] | 0.0014 ± 0.0003 | > 285 | 0.016 ± 0.0053 | 0.0054 ± 0.0018 | 0.011 ± 0.0019 | 0.0083 ± 0.0015 | > 2 | > 2 | SI (IIIB) ([1]; selectivity index, ratio CC50/EC50): >208,333; EC50 [7]: > 2 µM; EC50 ([10]; WT HIV-1): 0.0014 µM; SI [10]: > 208,333; CC50 ([11]; earlier compounds of Fig. 1 / introduction): > 285 µM; EC50 [12]: > 2 µM; EC50 [13]: > 2 µM; EC50 [14]: > 2 µM
Cc1cc(C#N)cc(C)c1Oc1nc(Nc2ccc(C#N)cc2)nc(N)c1Br [ETR, etravirine, reference compound] | 0.0032 ± 0.0007 | > 4.6 | 0.0044 ± 0.0016 | 0.0028 ± 0.0007 | 0.013 ± 0.0028 | 0.0076 ± 0.0023 | 0.012 ± 0.0094 | 0.044 ± 0.023 | CC50 ([11]; introduction): ~5 µM; CLint(liver) [15]: 1.14 L/h/kg; CLint(mic) [15]: 21.1 µL/min/mg; t1/2 [15]: 1.09 h; F (oral bioavailability) [16]: undetectable; IC50 [17]: 41.3 µM
